# Measurements: patent US20170340690A1, “METHOD FOR IMPROVING INTESTINAL HEALTH USING EXTRACTS OF CODONOPSIS LANCEOLATA” (KOREA INSTITUTE OF SCIENCE AND TECHNOLOGY, priority 2016, published 2017)
# Legend:
# [1] = tested on: intestinal microorganisms; assay: Gas chromatographic analysis of content of short-chain fatty acids in culture medium of intestinal microorganisms; type: cell-based, human; settings: 48 hours, extract 100 μg/mL, FOS 1 mg/mL, chloramphenicol 10 or 40 μg/mL; for Content (mM) of short-chain fatty acids: non-treated control 18.6 mM
# Method: The analysis sample was subjected to centrifugation of the 96-well plate at 3500 rpm for 10 minutes. 400 μL of the obtained supernatant was stabilized by adding 20 μL of 50% sulfuric acid and then 40 μL of an internal standard (1% 2-methylpentanoic acid) was added. Then, after adding 400 μL of ethyl ether, the mixture was mixed for about 2 minutes by vortexing. The sample was centrifuged and the top ethyl ether layer was recovered and subjected to GC analysis. The analysis was performed using Bruker 450-GC and the Supelco's Nukol Fused silica capillary column ([…]×0.25 mm×0.25 μm). The analysis condition is described in Table 4.
# [2] = tested on: intestinal microorganisms; assay: Measurement of growth of intestinal microorganisms (absorbance at 600 nm); type: cell-based, human; settings: normal medium condition (FIG. 1), 37° C., 48 hours, extract 100 μg/mL, FOS 1 mg/mL, chloramphenicol 10 or 40 μg/mL
# β-glucuronidase = settings: enzymatic activity divided by OD600; 37° C., 48 hours anaerobic culture; extract 100 μg/mL, FOS 1 mg/mL, chloramphenicol 10 or 40 μg/mL (FIG. 3)
# Method: The samples were transfered to an anaerobic workstation within 30 minutes and treated quickly. After adding glycerol as an additive for storage at low temperature, the mixtures were stored in an ultra-low temperature freezer with 40 mL each and were used as samples for culturing of intestinal microorganisms.
# Each bioreactor containing 300 mL of a medium was sterilized and maintained at an anaerobic condition by injecting nitrogen gas. Then, the sample of intestinal microorganisms prepared in Test Example 1 was inoculated. After conducting batch culturing for 24 hours, continuous culturing was performed using a medium of the same composition. Total residence time was 24 hours. Culturing temperature was maintained at 37° C. and pH was maintained at 5.5 using a 1 N hydrochloric acid solution and a 1 N sodium hydroxide solution. […] The culturing condition was maintained for at least 30 days. […]
# The culture medium of intestinal microorganisms incubated and maintained with a culture medium in a fermenter under an anaerobic condition. […] The supernatant was taken and absorbance was measured at 405 nm. Then, relative β-glucuronidase activity (%) was calculated by dividing the enzymatic activity by the degree of growth of intestinal microorganisms (OD600).
# tryptophanase = settings: enzymatic activity divided by OD600; 37° C., 48 hours anaerobic culture; extract 100 μg/mL, FOS 1 mg/mL, chloramphenicol 10 or 40 μg/mL (FIG. 4)
# Method: In order to quickly evaluate the effect of the candidate materials on improvement of intestinal microflora, culturing was performed using a 96-well plate. 10 μL of the culture medium of intestinal microorganisms maintained stably through anaerobic continuous culturing was inoculated to 1 mL of a medium for investigation described in Table 3. Culturing was performed at 37° C. for 48 hours by treating an extract of Codonopsis lanceolata for evaluating the effect of improving intestinal microflora at a concentration of 100 μg/mL (0.2% DMSO). […] At the same time, chloramphenicol (10 or 40 μg/mL) which is an antibiotic known to worsen intestinal microflora was used to compare the effect of improving intestinal microflora. Then, the effect of improving intestinal microflora was investigated by measuring the growth of intestinal microorganisms, the enzymatic activity of harmful bacteria, the content of short-chain fatty acids, etc. using the culture medium of microorganisms.
# The culture medium of intestinal microorganisms incubated and maintained with a culture medium in a fermenter under an anaerobic condition. […] The supernatant was taken and absorbance was measured at 550 nm. Then, relative tryptophanase activity (%) was calculated by dividing the enzymatic activity by the degree of growth of intestinal microorganisms (OD600).
compound,measurement,setting,value
O=C(N[C@H](CO)[C@H](O)c1ccc([N+](=O)[O-])cc1)C(Cl)Cl [chloramphenicol],Composition of short-chain fatty acids (%) Acetate,[1],54.36 ± 3.23%
same,Composition of short-chain fatty acids (%) Butyrate,[1],20.24 ± 0.64%
same,Composition of short-chain fatty acids (%) Propionate,[1],25.40 ± 0.89%
same,Content (mM) of short-chain fatty acids,[1],2.03 mM
same,Content (mM) of short-chain fatty acids,[1]; listed as Antibiotic (chloramphenicol),2.03 ± 0.06 mM
same,growth of intestinal microorganisms,[2],decreased growth of intestinal microorganisms
same,relative β-glucuronidase activity,β-glucuronidase,increased β-glucuronidase activity
same,relative tryptophanase activity,tryptophanase,increased tryptophanase activity
